Experiments:
[1] = target: KRAS G12V (Homo sapiens (Human), UniProt P01116+P62937, G12V); test: Ras-Raf (BRAF RBD) disruption / FRET / MOA assay, KRAS G12V; format: biochemical; conditions: read-out: IC50* KRAS G12V FRET data
Procedure, shortened: (§1)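 TR-FRET read-out: a drop in ratio relative to DMSO wells marks disruption of the Ras:RAF complex, reported as IC50. Compounds (3-fold series, 10 points, top 30 μM final) incubated 3 h at 25° C before Eu-anti-His 10 nM and APC-anti-GST 50 nM, 1.5 h more.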

[2] = target: NRAS Q61K (Homo sapiens (Human), UniProt P01111+P62937, Q61K); test: Ras-Raf (BRAF RBD) disruption / FRET / MOA assay, NRAS Q61K; format: biochemical; conditions: NRAS Q61K; Ras-Raf disruption/FRET/MOA assay; read-out: IC50* NRAS Q61K FRET data
NRAS Q61K, sequence (P01111 whole entry Q61K): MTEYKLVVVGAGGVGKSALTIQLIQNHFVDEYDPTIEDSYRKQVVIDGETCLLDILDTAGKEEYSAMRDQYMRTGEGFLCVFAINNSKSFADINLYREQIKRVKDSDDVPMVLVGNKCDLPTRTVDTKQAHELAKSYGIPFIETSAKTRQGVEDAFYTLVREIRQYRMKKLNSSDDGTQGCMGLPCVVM
NRAS Q61K, sequence (P62937 whole entry): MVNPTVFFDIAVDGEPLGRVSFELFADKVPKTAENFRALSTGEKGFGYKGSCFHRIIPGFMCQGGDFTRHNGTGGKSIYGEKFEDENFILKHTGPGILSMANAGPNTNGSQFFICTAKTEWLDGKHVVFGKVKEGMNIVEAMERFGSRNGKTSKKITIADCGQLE
Procedure, shortened: (§2)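 Compounds were tested as a 10-point 3-fold dilution series from 30 μM final for their ability to drive ternary complex formation between nucleotide-loaded Ras and cyclophilin A, displacing the BRAF RBD. After 3 h at 25° C., anti-His Eu-W1024 (10 nM) and anti-GST allophycocyanin (50 nM) were added for 1.5 h. A TR-FRET ratio decrease versus DMSO gave IC50.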

[3] = target: KRAS WT (Homo sapiens (Human), UniProt P01116+P62937); test: Ras-Raf (BRAF RBD) disruption / FRET / MOA assay, KRAS WT; format: biochemical; conditions: read-out: IC50* KRAS WT FRET data
KRAS WT, sequence (P01116-2 other isoform, or with tags, fused parts or gaps): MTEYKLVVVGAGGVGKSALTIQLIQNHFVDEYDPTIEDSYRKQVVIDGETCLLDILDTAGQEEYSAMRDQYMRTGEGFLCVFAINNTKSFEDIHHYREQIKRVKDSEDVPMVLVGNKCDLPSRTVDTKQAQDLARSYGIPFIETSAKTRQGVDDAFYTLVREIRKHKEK
KRAS WT, sequence (P62937 whole entry): as the sequence (P62937 whole entry) above
Procedure, shortened: as §1

[4] = target: NRAS G12C (Homo sapiens (Human), UniProt P01111+P62937, G12C); test: Ras-Raf (BRAF RBD) disruption / FRET / MOA assay, NRAS G12C; format: biochemical; conditions: read-out: IC50* NRAS G12C FRET data
NRAS G12C, sequence (P01111 whole entry G12C): as the sequence (P01111 whole entry Q61K) above, with G12C, K61Q counted along it
NRAS G12C, sequence (P62937 whole entry): as the sequence (P62937 whole entry) above
Procedure, shortened: as §1

[5] = target: K-Ras G13C (Homo sapiens (Human), UniProt P01116+P62937, G13C); test: Ras-Raf (BRAF RBD) disruption / FRET / MOA assay, KRAS G13C; format: biochemical; conditions: KRAS G13C; Ras-Raf disruption/FRET/MOA assay; read-out: IC50* KRAS G13C FRET data
K-Ras G13C, sequence (P01116-2 other isoform, or with tags, fused parts or gaps G13C): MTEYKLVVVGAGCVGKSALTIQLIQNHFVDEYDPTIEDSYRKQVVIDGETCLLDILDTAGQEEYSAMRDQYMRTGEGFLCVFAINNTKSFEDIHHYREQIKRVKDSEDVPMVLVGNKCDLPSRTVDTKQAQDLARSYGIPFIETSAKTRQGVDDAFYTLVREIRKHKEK
K-Ras G13C, sequence (P62937 whole entry): as the sequence (P62937 whole entry) above
Procedure, shortened: as §1

[6] = test system: NCI-H358 (K-Ras G12C); test: CellTiter-Glo cell viability assay, NCI-H358; format: cell-based, human; conditions: Homo sapiens, NCI-H358, 120 h, NCI-H358, 5-day treatment; class symbols; read-out: Additional H358 Cell Viability assay data (K-Ras G12C, IC50)
Procedure, shortened: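 Cells seeded, compound added directly, 5-day exposure. Plates to RT ~30 min, CellTiter-Glo luminescence read. Normalized to DMSO avg (x100); 4-parameter logistic fit.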

[7] = target: K-Ras G12C (Homo sapiens (Human), UniProt P01116+P62937, G12C); test: Ras-Raf (BRAF RBD) disruption / FRET / MOA assay, KRAS G12C; format: biochemical; conditions: KRAS G12C; Ras-Raf disruption/FRET/MOA assay; read-out: IC50* KRAS G12C FRET data
K-Ras G12C, sequence (P01116-2 other isoform, or with tags, fused parts or gaps G12C): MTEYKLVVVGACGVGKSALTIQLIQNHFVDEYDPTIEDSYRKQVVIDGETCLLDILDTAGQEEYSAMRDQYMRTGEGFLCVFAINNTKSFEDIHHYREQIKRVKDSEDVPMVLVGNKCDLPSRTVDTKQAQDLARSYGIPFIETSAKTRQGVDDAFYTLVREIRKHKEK
K-Ras G12C, sequence (P62937 whole entry): as the sequence (P62937 whole entry) above
Procedure, shortened: as §1

[8] = target: NRAS WT (Homo sapiens (Human), UniProt P01111+P62937); test: Ras-Raf (BRAF RBD) disruption / FRET / MOA assay, NRAS WT; format: biochemical; conditions: read-out: IC50* NRAS WT FRET data
NRAS WT, sequence (P01111 whole entry): as the sequence (P01111 whole entry Q61K) above, with K61Q counted along it
NRAS WT, sequence (P62937 whole entry): as the sequence (P62937 whole entry) above
Procedure, shortened: as §2

KRAS G12V, sequence (P01116-2 other isoform, or with tags, fused parts or gaps G12V): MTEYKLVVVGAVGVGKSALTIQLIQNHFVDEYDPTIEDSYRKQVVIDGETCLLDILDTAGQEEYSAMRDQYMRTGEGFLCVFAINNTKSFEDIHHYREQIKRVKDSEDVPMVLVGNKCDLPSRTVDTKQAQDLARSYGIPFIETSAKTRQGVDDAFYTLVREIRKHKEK
KRAS G12V, sequence (P62937 whole entry): as the sequence (P62937 whole entry) above

Compound	IC50 [1] [µM]	IC50 [2] [µM]	IC50 [3] [µM]	IC50 [4] [µM]	IC50 [5] [µM]	IC50 [6] [µM]	IC50 [7] [µM]	IC50 [8] [µM]
C=CC(=O)N1CC[C@H](C(=O)N(C)[C@H](C(=O)N[C@H]2CC3=NC=C(O3)c3ccc4c(c3)c(c(-c3cccnc3[C@H](C)OC)n4CC)CC(C)(C)COC(=O)[C@@H]3CCCN(N3)C2=O)C(C)C)C1 (atropisomer, axis not shown) [Example A278]	1 to 10	1 to 10	1 to 10	0.1 to 1	1 to 10	0.1 to 1	0.1 to 1	1 to 10
CCn1c(-c2cccnc2[C@H](C)OC)c2c3cc(ccc31)-c1cccc(c1)C[C@H](NC(=O)[C@H](C(C)C)N(C)C(=O)[C@H]1CCN(C(=O)C#CC(C)(C)N(C)C)C1)C(=O)N1CCC[C@H](N1)C(=O)OCC(C)(C)C2 (atropisomer, axis not shown) [Example A290]	1 to 10	1 to 10	1 to 10	< 0.01	1 to 10	< 0.01	< 0.01	1 to 10
C=CS(=O)(=O)N1CCC2(CCN([C@H](C(=O)N[C@H]3Cc4cc(O)cc(c4)-c4ccc5c(c4)c(c(-c4cccnc4[C@H](C)OC)n5CC)CC(C)(C)COC(=O)[C@@H]4CCCN(N4)C3=O)C(C)C)C2=O)CC1 (atropisomer, axis not shown) [Example A299]	0.1 to 1	0.01 to 0.1	0.01 to 0.1	< 0.01	< 0.01	< 0.01	< 0.01	0.01 to 0.1
CO[C@@H](C)c1ncccc1-c1c2c3cc(ccc3n1CC(F)(F)F)-c1csc(n1)C[C@H](NC(=O)[C@@H](COC1CN(C(=O)C#CC(C)(C)N(C)C)C1)C(C)C)C(=O)N1CCC[C@H](N1)C(=O)OCC(C)(C)C2 (atropisomer, axis not shown) [Example A343]	1 to 10	1 to 10	1 to 10	< 0.01	1 to 10	< 0.01	< 0.01	1 to 10
C=CC(=O)N1CC[C@H](C(=O)N(C)[C@H](C(=O)N[C@H]2Cc3cc(cc(C(F)F)c3)-c3ccc4c(c3)c(c(-c3cc(N5CCN(C)CC5)cnc3[C@H](C)OC)n4CC(F)(F)F)CC(C)(C)COC(=O)[C@@H]3CCCN(N3)C2=O)C(C)C)C1 (atropisomer, axis not shown) [Example A357]	0.1 to 1	1 to 10	0.1 to 1	0.1 to 1	0.1 to 1	< 0.01	0.1 to 1	0.1 to 1
CO[C@@H](C)c1ncccc1-c1c2c3cc(ccc3n1CC(F)(F)F)-c1cccc(c1)C[C@H](NC(=O)[C@@H](COC1CN(C(=O)C#CC(C)(C)N(C)C)C1)C(C)C)C(=O)N1CCC[C@H](N1)C(=O)OCC(C)(C)C2 (atropisomer, axis not shown) [Example A376]	1 to 10	> 10	1 to 10	< 0.01	1 to 10	< 0.01	< 0.01	1 to 10
C=CC(=O)N1C[C@H](C)N(C(=O)N(C)[C@H](C(=O)N[C@H]2Cc3nc(cs3)-c3ccc4c(c3)c(c(-c3cccnc3[C@H](C)OC)n4CC)CC(C)(C)COC(=O)[C@@H]3CCCN(N3)C2=O)C(C)C)C[C@@H]1C (atropisomer, axis not shown) [Example A385]	0.1 to 1	0.01 to 0.1	0.01 to 0.1	0.01 to 0.1	0.01 to 0.1	< 0.01	0.01 to 0.1	0.01 to 0.1
C=CC(=O)N1CCC12CN(C(=O)N(C)[C@H](C(=O)N[C@H]1Cc3nc(cs3)-c3ccc4c(c3)c(c(-c3cccnc3[C@H](C)OC)n4CC)CC(C)(C)COC(=O)[C@@H]3CCCN(N3)C1=O)C(C)C)C2 (atropisomer, axis not shown) [Example A393]	1 to 10	0.1 to 1	0.1 to 1	0.1 to 1	0.1 to 1	0.01 to 0.1	0.1 to 1	0.1 to 1
CCn1c(-c2cccnc2[C@H](C)OC)c2c3cc(ccc31)-c1cc(F)cc(c1)C[C@H](NC(=O)[C@@H](COC1CN(C(=O)C#CC(C)(C)N(C)C)C1)C(C)C)C(=O)N1CCC[C@H](N1)C(=O)OCC(C)(C)C2 (atropisomer, axis not shown) [Example A403]	1 to 10	> 10	> 10	0.01 to 0.1	1 to 10	< 0.01	< 0.01	> 10
C=CC(=O)N1CC2(CCN2C(=O)N(C)[C@H](C(=O)N[C@H]2Cc3nc(cs3)-c3ccc4c(c3)c(c(-c3cccnc3[C@H](C)OC)n4CC)CC(C)(C)COC(=O)[C@@H]3CCCN(N3)C2=O)C(C)C)C1 (atropisomer, axis not shown) [Example A407]	0.1 to 1	0.01 to 0.1	0.1 to 1	< 0.01	0.1 to 1	< 0.01	< 0.01	0.01 to 0.1
C=CC(=O)N1CC[C@H](C(=O)N(C)[C@H](C(=O)N[C@H]2CC3=NN=C(O3)c3ccc4c(c3)c(c(-c3cccnc3[C@H](C)OC)n4CC)CC(C)(C)COC(=O)[C@@H]3CCCN(N3)C2=O)C(C)C)C1 (atropisomer, axis not shown) [Example A447]	1 to 10	> 10	1 to 10	0.1 to 1	1 to 10	0.1 to 1	0.1 to 1	1 to 10
C=CC(=O)Nc1ncc(C(=O)N(C)[C@H](C(=O)N[C@H]2Cc3cccc(c3)-c3ccc4c(c3)c(c(-c3cccnc3[C@H](C)OC)n4CC)CC(C)(C)COC(=O)[C@@H]3CCCN(N3)C2=O)C(C)C)n1C (atropisomer, axis not shown) [Example A474]	1 to 10	1 to 10	1 to 10	< 0.01	< 0.01	< 0.01	< 0.01	1 to 10
C=CC(=O)N1CC[C@H](C(=O)N2CC[C@H](C)[C@H]2C(=O)N[C@H]2Cc3cccc(c3)-c3ccc4c(c3)c(c(-c3cccnc3[C@H](C)OC)n4CC)CC(C)(C)COC(=O)[C@@H]3CCCN(N3)C2=O)C1 (atropisomer, axis not shown) [Example A494]	> 10	1 to 10	1 to 10	0.1 to 1	1 to 10	0.1 to 1	0.1 to 1	1 to 10
C=CC(=O)N1CC[C@H](C(=O)N2CCCCC[C@H]2C(=O)N[C@H]2Cc3cccc(c3)-c3ccc4c(c3)c(c(-c3cccnc3[C@H](C)OC)n4CC)CC(C)(C)COC(=O)[C@@H]3CCCN(N3)C2=O)C1 (atropisomer, axis not shown) [Example A496]	> 10	1 to 10	> 10	1 to 10	1 to 10	0.1 to 1	1 to 10	1 to 10
CCn1c(-c2cccnc2[C@H](C)OC)c2c3cc(ccc31)-c1cccc(c1)C[C@H](NC(=O)[C@H](C(C)C)N1CC[C@]3(CCN(C(=O)C#CC(C)(C)N(C)C)C3)C1=O)C(=O)N1CCC[C@H](N1)C(=O)OCC(C)(C)C2 (atropisomer, axis not shown) [Example A534, (2S)-2-((S)-7-(4-(dimethylamino)-4-methylpent-2-ynoyl)-1-oxo-2,7-diazaspiro[4.4]nonan-2-yl)-N-((6^3S,4S)-1^1-ethyl-1^2-(2-((S)-1-methoxyethyl)pyridin-3-yl)-10,10-dimethyl-5,7-dioxo-6^1,6^2,6^3,6^4,6^5,6^6-hexahydro-1^1H-8-oxa-1(5,3)-indola-6(1,3)-pyridazina-2(1,3)-benzenacycloundecaphane-4-yl)-3-methylbutanamide]	1 to 10	1 to 10	1 to 10	< 0.01	0.1 to 1	< 0.01	< 0.01	1 to 10
C=CC(=O)N1CC[C@H]2[C@@H]1CN2C(=O)N(C)[C@H](C(=O)N[C@H]1Cc2nc(cs2)-c2ccc3c(c2)c(c(-c2cccnc2[C@H](C)OC)n3CC)CC(C)(C)COC(=O)[C@@H]2CCCN(N2)C1=O)C(C)C (atropisomer, axis not shown) [Example A547]	1 to 10	0.1 to 1	0.1 to 1	0.1 to 1	0.1 to 1	0.1 to 1	0.1 to 1	0.1 to 1
